In patent US20090209536A1, “AMINOQUINAZOLINE CANNABINOID RECEPTOR MODULATORS FOR TREATMENT OF DISEASE” (KALYPSYS, INC., priority 2007, published 2009):
Read-outs that look alike come from different tables or passages of the source.

Experiments:
[1] = molecular target: T1, human cannabinoid receptor type 2 (Homo sapiens, UniProt P34972); assay: Human CB2 Radioligand Binding Assay; details: membranes from stably transfected CHO CB2 cells
T1 construct: expressed in transfected cells; membrane preparation
T1 sequence (P34972 whole entry): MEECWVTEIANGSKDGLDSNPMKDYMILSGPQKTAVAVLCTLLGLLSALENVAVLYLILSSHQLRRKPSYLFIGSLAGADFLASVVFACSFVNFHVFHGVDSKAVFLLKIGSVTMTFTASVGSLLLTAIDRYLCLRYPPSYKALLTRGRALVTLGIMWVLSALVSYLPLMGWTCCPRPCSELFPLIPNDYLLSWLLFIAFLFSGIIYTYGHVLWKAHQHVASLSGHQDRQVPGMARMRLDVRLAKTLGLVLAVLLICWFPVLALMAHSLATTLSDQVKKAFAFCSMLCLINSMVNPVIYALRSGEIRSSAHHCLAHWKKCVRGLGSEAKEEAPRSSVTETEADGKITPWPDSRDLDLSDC
Protocol: 1. Human CB2 Radioligand Binding Assay
This receptor binding filtration assay measures the receptor-ligand interactions of compounds by measuring ability to compete with a radiolabeled control ligand. Reactions were performed in 96 deep-well plate (Costar 3961) with a final volume of 600 ul. Compounds were added to each well either in single point (10 uM final) or dose-response. Compounds were delivered in DMSO or further diluted in incubation buffer to a final assay DMSO concentration of 1%. Incubation buffer (50 mM Tris-HCl pH 7.4, 2.5 mM EGTA, 5 mM MgCl2, 5.0 mg/ml fatty acid free BSA) was added to each well. Following buffer addition, [^3H] CP-55,940 was added. Tritiated CP-55,940 (Perkin Elmer) was used at the Kd determined from prior saturation binding experiments conducted on each lot of membranes. Membrane preparations from stably transfected CHO CB2 cells were added and the reaction was incubated for 90 minutes at 30° C. Unifilter GF/C filtration plates (Perkin Elmer) were pre-wet with 0.05% polyethylenimine. Samples were transferred to Unifilter plates and separation of unbound radioligand was achieved using a vacuum manifold (Millipore). Following thorough washing with 5 ml/well ice-cold wash buffer (50 mM Tris-HCl pH 7.4, 2.5 mM EGTA, 5 mM MgCl2, 0.5 mg/ml fatty acid free BSA), filterplates were dried completely. Betaplate Scint Scintillation cocktail (25 ul, Perkin Elmer) was applied and plates were read using Microbeta Trilux (Wallac). Data analysis was performed in Spotfire. Activity of the positive control (100 nM CP-55,940) was set as 100% efficacy.
Stable recombinant Human CB2-CHO cell membranes were prepared as follows: Chinese Hamster Ovarian (CHO) cells stably expressing human cannabinoid receptor type 2 were grown to 90% confluence in 15×100 mm culture dishes under puromycin selection (5 ug/ml) Cells were harvested from culture flasks using a cell scraper, were washed once with cold phosphate-buffered saline (calcium and magnesium free) and pelleted by centrifugation at 400 g for 5 min at 4° C. Cell pellet was washed once with cold phosphate-buffered saline and centrifuged again at 400×g for 5 min at 4° C. The pellet was suspended in ice-cold lysis buffer (10 mM Tris-HCl, 0.1 mM EDTA, containing […], pH 7.5) and homogenized in a chilled 7 ml glass dounce homogenizer using 50 strokes. The homogenate was centrifuged at 400 g for 15 min at 4° C. The cloudy supernatant was collected and centrifuged at 41000 g for 30 min at 4° C. The resulting pellet was washed with ice-cold sucrose-free lysis buffer and centrifuged again at 41000 g for 30 min at 4° C. The membrane pellet was suspended in sucrose-free storage buffer (10 mm Tris-HCl, 0.1 mM EDTA, pH 7.5) to a concentration of 2-3 mg protein/ml. Aliquots were flash frozen in liquid nitrogen and stored at −80° C. Concentration was determined using Dc protein assay kit (Bio-Rad).

[2] = molecular target: T2, human cannabinoid receptor type 1 (Homo sapiens, UniProt P21554); assay: Human CB1 Radioligand Binding Assay (basis of selectivity, CB2 vs. CB1); details: CB1: HEK 293 EBNA cells expressing human CB1; CB2: CHO CB2 membranes
T2 construct: purchased Perkin Elmer RBHCB1M; host or cells: HEK 293 EBNA cells
T2 sequence (P21554 whole entry): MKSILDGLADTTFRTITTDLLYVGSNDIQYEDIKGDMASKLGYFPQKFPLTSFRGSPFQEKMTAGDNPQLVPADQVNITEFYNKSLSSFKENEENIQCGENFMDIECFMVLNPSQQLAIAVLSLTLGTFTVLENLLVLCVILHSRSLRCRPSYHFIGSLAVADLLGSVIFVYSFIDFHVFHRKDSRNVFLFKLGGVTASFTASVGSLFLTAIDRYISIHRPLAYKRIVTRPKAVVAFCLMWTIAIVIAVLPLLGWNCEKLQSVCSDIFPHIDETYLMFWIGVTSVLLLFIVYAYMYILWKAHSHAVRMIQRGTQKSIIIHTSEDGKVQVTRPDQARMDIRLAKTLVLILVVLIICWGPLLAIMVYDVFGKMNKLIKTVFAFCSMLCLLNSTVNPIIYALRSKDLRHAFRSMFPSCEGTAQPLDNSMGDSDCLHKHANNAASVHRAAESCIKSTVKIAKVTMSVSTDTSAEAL
Protocol: 2. Human CB1 Radioligand Binding Assay
The incubation buffer was composed of 50 mM Tris-HCl pH 7.4, 2.5 mM EDTA, 5 mM MgCl2, 5.0 mg/ml fatty acid free BSA and the wash buffer was composed of 50 mM Tris-HCl pH 7.4, 2.5 mM EDTA, 5 mM MgCl2, 0.5 mg/ml fatty acid free BSA.

[3] = competition with [3H] CP-55,940, read-out: CB2 Ligand Binding Asssay EC50
[4] = CB2 Ligand Binding Asssay EC50, competition with [3H] CP-55,940

| EC50 [1, 3] [nM] | Selectivity, CB2 vs. CB1 [2] | SMILES | EC50 [1, 4] [nM] |
| --- | --- | --- | --- |
| < 1000 | + (+ indicates > 10−fold) | CC(=O)N1CCN(c2nc(-c3ccccc3Cl)nc3ccccc23)CC1 [Example 99, 1-(4-(2-(2-Chlorophenyl)quinazolin-4-yl)piperazin-1-yl)ethanone] |  |
| < 1000 | − (− indicates ≦ 10−fold) | FC(F)(F)Oc1ccc2nc(-c3ccc(Cl)cc3)nc(N3CCCC3)c2c1 [Example 222, 2-(4-Chlorophenyl)-4-(pyrrolidin-1-yl)-6-(trifluoromethoxy)quinazoline] |  |
| < 1000 | − (− indicates ≦ 10−fold) | Clc1ccccc1-c1nc(N2CCc3ccccc3C2)c2ccccc2n1 [Example 61, 2-(2-Chlorophenyl)-4-(3,4-dihydroisoquinolin-2(1H)-yl)quinazoline] |  |
| < 1000 | + (+ indicates > 10−fold) | CCOC(=O)N1CCN(c2nc(Cc3cccc4ccccc34)nc3ccccc23)CC1 [Example 345, Ethyl 4-(2-(naphthalen-1-ylmethyl)quinazolin-4-yl)piperazine-1-carboxylate] |  |
| > 1000 | − (− indicates ≦ 10−fold) | FC(F)(F)c1ccc(Cc2nc(N3CCCCC3)c3ccccc3n2)cc1 [Example 195, 4-(Piperidin-1-yl)-2-(4-(trifluoromethyl)benzyl)quinazoline] |  |
| < 1000 | − (− indicates ≦ 10−fold) | Clc1ccc2c(N3CCCC3)nc(C3CCCCC3)nc2c1 [Example 160, 7-Chloro-2-cyclohexyl-4-(pyrrolidin-1-yl)quinazoline] |  |
| < 1000 | + (+ indicates > 10−fold) | Clc1ccc2c(N3CCCCC3)nc(C3CCCCC3)nc2c1 [Example 164, 7-Chloro-2-cyclohexyl-4-(piperidin-1-yl)quinazoline] |  |
| > 1000 | − (− indicates ≦ 10−fold) | Cn1ccnc1C(=O)N1CCN(c2nc(-c3ccccc3Cl)nc3ccccc23)CC1 [Example 263, (4-(2-(2-chlorophenyl)quinazolin-4-yl)piperazin-1-yl)(1-methyl-1H-imidazol-2-yl)methanone] |  |
| < 1000 | − (− indicates ≦ 10−fold) | FC(F)(F)c1ccc(-c2nc(N3CCCCC3)c3ccccc3n2)cc1 [Example 44, 4-(Piperidin-1-yl)-2-(4-(trifluoromethyl)phenyl)quinazoline] |  |
| < 1000 | + (+ indicates > 10−fold) | CN1CCN(c2nc(C3CCCC3)nc3ccccc23)CC1 [Example 138, 2-Cyclopentyl-4-(4-methylpiperazin-1-yl)quinazoline] |  |
| > 1000 | + (+ indicates > 10−fold) | COc1ccc(Cc2nc(N3CCCCC3)c3ccccc3n2)cc1 [Example 336, 2-(4-Methoxybenzyl)-4-(piperidin-1-yl)quinazoline] |  |
| < 1000 | + (+ indicates > 10−fold) | CN1CCN(c2nc(-c3ccccc3Cl)nc3ccccc23)CC1 [Example 57, 2-(2-Chlorophenyl)-4-(4-methylpiperazin-1-yl)quinazoline] |  |
| > 1000 | − (− indicates ≦ 10−fold) | CC(=O)N1CCN(c2nc(-c3ccc(Cl)cc3)nc3ccccc23)CC1 [Example 199, 1-(4-(2-(4-Chlorophenyl)quinazolin-4-yl)piperazin-1-yl)ethanone] |  |
| < 1000 | + (+ indicates > 10−fold) | Clc1ccccc1-c1nc(N2CCCC2)c2c(Cl)cccc2n1 [Example 267, 5-Chloro-2-(2-chlorophenyl)-4-(pyrrolidin-1-yl)quinazoline] |  |

| SMILES | EC50 [1, 3] [nM] | Selectivity, CB2 vs. CB1 [2] | EC50 [1, 4] [nM] |
| --- | --- | --- | --- |
| COC(=O)c1ccc2c(N3CCN(C(C)=O)CC3)nc(-c3ccccc3Cl)nc2c1 [Example 322, Methyl 4-(4-acetylpiperazin-1-yl)-2-(2-chlorophenyl)quinazoline-7-carboxylate] |  | − (− indicates ≦ 10−fold) | > 1000 |
| CC(C)c1nc(N2CCOCC2)c2ccccc2n1 [Example 147, 2-Isopropyl-4-morpholin-4-ylquinazoline] |  | − (− indicates ≦ 10−fold) | > 1000 |
